What was measured:
Assay type in all cases: cell-based
Rotavirus (Ku strain) = assay: Anti-rotavirus activity, plaque inhibition in MA-104 cells; details: 30 μg/mL of test compound, plaque count
[1] = test system: influenza virus (A/PR/8/34 strain); assay: Anti-influenza virus activity, plaque inhibition in MDCK cells; details: PR/8, MDCK; for inhibition at 100 µg/mL / inhibition at 10 µg/mL: 72 h, read-out: Inhibitory rate
RS virus (A-2 strain) = assay: Anti-RS virus (respiratory syncytial virus) activity, plaque inhibition in HEp-2 cells; details: 30 μg/mL of test compound, plaque count

Compound	inhibition at 100 µg/mL [1]	also measured
NC(=O)c1nccn([C@@H]2O[C@H](COC(=O)c3ccccc3)[C@@H](OC(=O)c3ccccc3)[C@H]2OC(=O)c2ccccc2)c1=O [Example I-1, [(2R,3R,4R,5R)-5-[3-(aminocarbonyl)-2-oxo-1(2H)-pyrazinyl]-3,4-bis(benzoyloxy)tetrahydro-2-furanyl]methyl benzoate]		anti-rotavirus activity (Rotavirus (Ku strain)): shows an anti-rotavirus activity
NC(=O)c1nccn(C2C=CC(CO)C2)c1=O (stereo not drawn) [Example I-8, 4-[4-(hydroxymethyl)-2-cyclopenten-1-yl]-3-oxo-3,4-dihydro-2-pyrazinecarboxamide]	42%	
NC(=O)c1nccn([C@@H]2CO[C@H](CO)[C@@H](O)C2)c1=O [Example I-9, 4-[(3S,5S,6R)-5-hydroxy-6-(hydroxymethyl)tetrahydro-2H-pyran-3-yl]-3-oxo-3,4-dihydro-2-pyrazinecarboxamide]	31%	
NC(=O)c1nc(F)cn([C@@H]2O[C@H](CO)[C@@H](O)[C@H]2O)c1=O [Example I-6, 4-[(2R,3R,4S,5R)-3,4-dihydroxy-5-(hydroxymethyl)tetrahydro-2-furanyl]-6-fluoro-3-oxo-3,4-dihydro-2-pyrazinecarboxamide]		inhibition at 10 µg/mL [1]: 47%
NC(=O)c1nc(F)cnc1O [6-fluoro-3-hydroxy-2-pyrazinecarboxamide]		inhibition at 1 µg/mL ([1]; read-out: plaque inhibitory rate): 100%
NC(=O)c1nccn([C@@H]2O[C@H](CO)[C@@H](O)[C@H]2O)c1=O [Example I-2, 4-[(2R,3R,4S,5R)-3,4-dihydroxy-5-(hydroxymethyl)tetrahydro-2-furanyl]-3-oxo-3,4-dihydro-2-pyrazinecarboxamide]		inhibition at 10 µg/mL [1]: 95%
NC(=O)c1nc(Cl)cn([C@@H]2O[C@H](CO)[C@@H](O)[C@H]2O)c1=O [Example I-7, 6-chloro-4-[(2R,3R,4S,5R)-3,4-dihydroxy-5-(hydroxymethyl)tetrahydro-2-furanyl]-3-oxo-3,4-dihydro-2-pyrazinecarboxamide]	42%	
NC(=O)c1nccn([C@@H]2O[C@H](COP(=O)(O)O)[C@@H](O)[C@H]2O)c1=O [Example I-12, {(2R,3S,4R,5R)-5-[3-(aminocarbonyl)-2-oxo-1(2H)-pyrazinyl]-3,4-dihydroxytetrahydro-2-furanyl}methyl dihydrogen phosphate]	28%	
CC(=O)OC[C@H]1O[C@@H](n2ccnc(C(=N)N)c2=O)[C@H](OC(C)=O)[C@@H]1OC(C)=O [Example I-14, (2R,3R,4R,5R)-4-(acetyloxy)-2-[(acetyloxy)methyl]-5-[3-[amino(imino)methyl]-2-oxo-1(2H)-pyrazinyl]tetrahydro-3-furanyl acetate]		anti-RS virus activity (RS virus (A-2 strain)): shows an anti-RS virus activity
NC(=O)c1nccn(C2C[C@H](O)[C@@H](CO)O2)c1=O (stereo partly drawn) [Example I-4, 4-[(4S,5R)-4-hydroxy-5-(hydroxymethyl)tetrahydro-2-furanyl]-3-oxo-3,4-dihydro-2-pyrazinecarboxamide]	80%	
NC(=O)c1nccn([C@@H]2CO[C@H](CO)[C@@H](O)[C@H]2O)c1=O [Example I-10, 4-[(3R,4S,5S,6R)-4,5-dihydroxy-6-(hydroxymethyl)tetrahydro-2H-pyran-3-yl]-3-oxo-3,4-dihydro-2-pyrazinecarboxamide]	26%	
NC(=O)c1nccn([C@@H]2O[C@H](COP(=O)(OCc3ccccc3)OCc3ccccc3)[C@@H](O)[C@H]2O)c1=O [Example I-13, {(2R,3S,4R,5R)-5-[3-(aminocarbonyl)-2-oxo-1(2H)-pyrazinyl]-3,4-dihydroxytetrahydro-2-furanyl}methyl dibenzyl phosphate]	39%	
